From patent US9394233B2, “ROS-activated compounds as selective anti-cancer therapeutics” (University of Cincinnati, priority 2012, dated 2016)

How the values were obtained:
MOLT-4 = experiment: NCI-60 Sulforhodamine B growth inhibition, MOLT-4; type: cell-based; conditions: Homo sapiens; MOLT-4, ALL model line
Procedure: (§1) Compounds 25 and 9 were evaluated for effects on the viability of the cell lines in the NCI-60 cell panel. […] Data is reported as growth inhibition GI50, rather than IC50, to reflect the change in cell counts relative to the starting number of cells.
(§2) Growth inhibition pattern induced by 25 and 9 based on the type of cancer was also analyzed. […] The majority of leukemia and renal cancer cell lines were above the median, indicating enhanced sensitivity to ROS-activating compounds. The current results further substantiate renal carcinoma as a potential target.

MA9.3 AML cells = experiment: AML cytotoxicity, MTT assay on MA9.3 AML cell line; type: cell-based, human; conditions: Homo sapiens, read-out: IC50 against MA9.3 AML cells
Description: (§3) To assess the anti-cancer activity against AML, transformed cells were compared to closely related, non-transformed counterparts. In the case of AML, the generally accepted non-transformed cell of origin is the human CD34+ blood stem/progenitor cell. Assessing potency against normal blood stem cells is important since, without selective cytotoxicity, an agent will yield reduced efficacy and therapeutic potential. […] Therefore, a comparison of current agents and the ROS-activated compounds disclosed herein was carried out. (FIG. 3). Cytotoxicity was measured via MTT assay on CD34+ blood stem/progenitor cells (grey lines) and on the MA9.3 AML cell line (black lines), which was derived from the transformation of human CD34+ cells by introduction of the leukemia oncogene MLL-AF9.

ACHN = experiment: Sulforhodamine B total protein content assay, ACHN; type: cell-based; conditions: Homo sapiens; ACHN renal cancer cells
Procedure: (§4) The sensitivity of renal cancer cells to treatment with compound 25 was investigated. Compound 25 was evaluated for effects on viability using a sulforhodamine B total protein content assay at the NCI Developmental Therapeutics Program. The method uses total protein content and was developed by Monks et al., Feasibility of a high-flux anticancer drug screen using a diverse panel of cultured human tumor cell lines, J. Natl. Cancer Inst. 83:757-66 (1991). Briefly, cells are treated with compound 25 and then fixed to the plate surface. The number of cells is proportional to the relative amount of protein as measured by sulforhodamine B. Seven renal cancer cell lines were examined: 786-0, A498, ACHN, CAKI-1, RXF 393, SN12C, and UO-31. Data at the NCI was then fit to sigmoid and the IC50 and fitting error determined

HeLa cells = experiment: HeLa cell viability, MTT assay; type: cell-based; conditions: Homo sapiens, 50% reduction in percent of viable HeLa cells, read-out: IC50 against HeLa Cells
Procedure: Table 1 sets forth ROS-Activated compounds of the present invention, together with their IC50 values corresponding to a 50% reduction in the percent of viable HeLa cells in vitro as measured via MTT assay.
All synthesized compounds were purified to greater than 98% purity prior to cell testing. HeLa cell viability assays were performed using an MTT assay.
The general structure of the ROS-activated compounds disclosed herein was probed to determine how positions in the structure alter potency in aqueous media. Compounds were screened against HeLa cells to determine IC50 values. Cell viability was monitored by an MTT dye that forms a purple formazan product in viable cells that are undergoing metabolism. […] Errors reported are between two separate experiments; independent curve-fitting had r greater than 0.95).

SR-91 = experiment: NCI-60 Sulforhodamine B growth inhibition, SR-91; type: cell-based; conditions: SR-91, acute lymphoblastic leukemia model
Procedure: as §1, §2

renal cancer cells = experiment: Sulforhodamine B total protein content assay, renal cancer cell lines (NCI); type: cell-based; conditions: Homo sapiens; median over seven renal cancer cell lines
Procedure: as §4

CAKI-1 = experiment: Sulforhodamine B total protein content assay, CAKI-1; type: cell-based; conditions: Homo sapiens; CAKI-1 renal cancer cells
Procedure: as §4

NCI-60 cell panel = experiment: NCI-60 cell panel, Sulforhodamine B growth inhibition; type: cell-based
Procedure: as §1

SN12C = experiment: Sulforhodamine B total protein content assay, SN12C; type: cell-based; conditions: Homo sapiens; SN12C renal cancer cells
Procedure: as §4

RPMI-8226 = experiment: NCI-60 Sulforhodamine B growth inhibition, RPMI-8226; type: cell-based; conditions: Homo sapiens; RPMI-8226, plasmacytoma and myeloma cell line
Procedure: as §1, §2

[1] = system: human CD34+ blood stem/progenitor cells; experiment: Cytotoxicity, MTT assay on CD34+ blood stem/progenitor cells; type: cell-based; conditions: Homo sapiens, normal blood stem cells, read-out: IC50 against CD34+ blood stem/progenitor cells
Description: as §3

Oc1ccc(OCCN(CCOc2ccc(O)cc2)c2ccccc2)cc1 [Compound 25, 4,4′-(2,2′-(phenylazanediyl)bis(ethane-2,1-diyl)bis(oxy))diphenol]
GI50 (MOLT-4): 1.3 µM
IC50 (MA9.3 AML cells): 3 ± 0.2 µM
IC50 (ACHN): 0.36 ± 0.09 µM
IC50 (HeLa cells): 11 µM
GI50 (SR-91): 0.47 µM
IC50 (renal cancer cells): 1.8 µM
IC50 (CAKI-1): 0.37 ± 0.04 µM
range of GI50 values (NCI-60 cell panel; distribution of GI50 over NCI-60 panel): 55 fold
GI50 (NCI-60 cell panel; median over NCI-60 panel, Sulforhodamine B): 3.9 µM
IC50 (SN12C): 21 ± 1.2 µM
GI50 (RPMI-8226): 3.8 µM
IC50 [1]: 16 ± 1 µM
